Consider eleven compounds from article PMC6844396, “Design, synthesis and biological evaluation of novel 1H-1,2,4-triazole, benzothiazole and indazole-based derivatives as potent FGFR1 inhibitors viafragment-based virtual screening” (Journal of Enzyme Inhibition and Medicinal Chemistry, 2019).

For data set [1], the target named is EPH-A2 (Homo sapiens, UniProt P29317). Put plainly: ELISA kinase assay, EPH-A2. It counts as biochemical. The following applies: kinase selectivity panel. The method, then:
(§1) The kinase profiling of 9 u was conducted using Elisa kinase assay and the Eurofins Kinase Profiler Selectivity Testing Service.
(§2) Elisa kinase assay. The effects of the indicated compounds on the activities of receptor tyrosine kinases were determined using enzyme-linked immunosorbent assays (ELISAs) with purified recombinant proteins. Briefly, 20 μg/mL poly (Glu,Tyr)4:1 (Sigma, St Louis, MO, USA) was pre-coated in 96-well plates as a substrate. A 50 μL aliquot of 10 μmol/L ATP solution diluted in kinase reaction buffer (50 mmol/L HEPES [pH 7.4], 50 mmol/L MgCl2, 0.5 mmol/L MnCl2, 0.2 mmol/L Na3VO4, and 1 mmol/L DTT) was added to each well; 1 μL of different compounds with indicated concentration diluted in 1% DMSO (v/v) (Sigma, St Louis, MO, USA) were then added to each reaction well. DMSO (1%, v/v) was used as the negative control. The kinase reaction was initiated by the addition of purified tyrosine kinase proteins (FGFR1, FGFR2, FGFR3, FGFR4, ALK, Bcr-Abl, EPH-A2, Flt-1, RET, c-Src, IGF1R, c-Met, EGFR, ErbB2) diluted in 49 μL of kinase reaction buffer solution. […] The reaction was terminated by the addition of 50 μL of 2 mol/l H2SO4 as the colour changed, and the plate was analysed using a multi-well spectrophotometer (SpectraMAX 190, Molecular Devices, Sunnyvale, CA, USA) at 490 nm. […] The IC50 values were calculated from the inhibition curves in two separate experiments.

Data set [2] concerns the target FGFR2 (Homo sapiens, UniProt P21802). Description: ELISA kinase assay, FGFR2. It counts as biochemical. The following applies: kinase selectivity panel. On the procedure:
DMSO (1%, v/v) was used as the negative control. […] Anti-phosphotyrosine (PY99) antibody (100 μL; 1:500, diluted in 5 mg/mL BSA T-PBS) was then added. […] The IC50 values were calculated from the inhibition curves in two separate experiments.

The target of data set [3] is IGF1R (Homo sapiens, UniProt P08069). Put plainly: ELISA kinase assay, IGF1R. Conditions: kinase selectivity panel. It counts as biochemical. The method, then:
as §1, §2
A general note: ELISA stands for enzyme-linked immunosorbent assay.

Data set [4] has as its target RET (Homo sapiens, UniProt P07949). Description: ELISA kinase assay, RET. It counts as biochemical. Conditions: kinase selectivity panel. On the procedure:
as §1, §2

In data set [5] the target is FGFR1 (Homo sapiens, UniProt P11362). Put plainly: ELISA kinase assay, FGFR1. Conditions: for IC50: ELISA, average values from two separate experiments. It counts as biochemical. The method, then:
Elisa kinase assay. The effects of the indicated compounds on the activities of receptor tyrosine kinases were determined using enzyme-linked immunosorbent assays (ELISAs) with purified recombinant proteins. Briefly, 20 μg/mL poly (Glu,Tyr)4:1 (Sigma, St Louis, MO, USA) was pre-coated in 96-well plates as a substrate. A 50 μL aliquot of 10 μmol/L ATP solution diluted in kinase reaction buffer (50 mmol/L HEPES [pH 7.4], 50 mmol/L MgCl2, 0.5 mmol/L MnCl2, 0.2 mmol/L Na3VO4, and 1 mmol/L DTT) was added to each well; 1 μL of different compounds with indicated concentration diluted in 1% DMSO (v/v) (Sigma, St Louis, MO, USA) were then added to each reaction well. DMSO (1%, v/v) was used as the negative control. The kinase reaction was initiated by the addition of purified tyrosine kinase proteins (FGFR1, FGFR2, FGFR3, FGFR4, ALK, Bcr-Abl, EPH-A2, Flt-1, RET, c-Src, IGF1R, c-Met, EGFR, ErbB2) diluted in 49 μL of kinase reaction buffer solution. After incubation for 60 min at 37 °C, the plate was washed three times with phosphate-buffered saline (PBS) containing 0.1% Tween 20 (T-PBS). Anti-phosphotyrosine (PY99) antibody (100 μL; 1:500, diluted in 5 mg/mL BSA T-PBS) was then added. After a 30 min incubation at 37 °C, the plate was washed three times, and 100 μL horseradish peroxidase-conjugated goat anti-mouse IgG (1:2000, diluted in 5 mg/mL BSA T-PBS) was added. The plate was then incubated at 37 °C for 30 min and washed 3 times. A 100 μL aliquot of a solution containing 0.03% H2O2 and 2 mg/mL o-phenylenediamine in 0.1 mol/l citrate buffer (pH 5.5) was added. The reaction was terminated by the addition of 50 μL of 2 mol/l H2SO4 as the colour changed, and the plate was analysed using a multi-well spectrophotometer (SpectraMAX 190, Molecular Devices, Sunnyvale, CA, USA) at 490 nm. The inhibition rate (%) was calculated using the following equation: [1-(A490/A490 control)] × 100%. The IC50 values were calculated from the inhibition curves in two separate experiments.

Data set [6] deals with SNU-16 cell. Put plainly: Cell proliferation assay (CCK-8 or MTT), SNU-16. It counts as cell-based, Human. Conditions: Homo sapiens, SNU-16 is FGFR2-amplified cell type, 72 h. The method, then: Human gastric cancer cell line SNU-16 was purchased from American Type Culture Collection (ATCC, Manssas, VA, USA). All the cell lines were routinely maintained in complete medium according to the suppliers’ recommendations.
Cells were seeded in 96-well tissue culture plates. On the day when seeding, the cells were exposed to various concentrations of compounds and further cultured for 72 h at 37 °C. Finally, cell proliferation was determined using Cell Counting Kit (CCK-8) or the thiazolyl blue tetrazolium bromide (MTT, from Sigma-Aldrich, St. Louis, MO, USA) assay. The IC50 values were calculated by concentration–response curve fitting using a SoftMax pro-based four-parameter method.

The target in data set [7] is FGFR3 (Homo sapiens, UniProt P22607). Put plainly: ELISA kinase assay, FGFR3. The data set is classed as biochemical. The following applies: kinase selectivity panel. On the procedure: as §1, §2
Data set [8] has as its target ALK (Homo sapiens, UniProt Q9UM73). Put plainly: ELISA kinase assay, ALK. It counts as biochemical. Conditions: kinase selectivity panel. On the procedure:
as §1, §2

In data set [9] the target is c-Met (Homo sapiens, UniProt P08581). Put plainly: ELISA kinase assay, c-Met. The data set is classed as biochemical. Conditions: kinase selectivity panel. On the procedure:
as §1, §2

The target in data set [10] is c-Src (Homo sapiens, UniProt P12931). Put plainly: ELISA kinase assay, c-Src. The data set is classed as biochemical. The following applies: kinase selectivity panel. On the procedure:
as §1, §2

For data set [11], the target named is EGFR (Homo sapiens, UniProt P00533). Put plainly: ELISA kinase assay, EGFR. The data set is classed as biochemical. Conditions: kinase selectivity panel. The method, then: as §1, §2
For data set [12], the target named is FGFR4 (Homo sapiens, UniProt P22455). Put plainly: ELISA kinase assay, FGFR4. It counts as biochemical. The following applies: kinase selectivity panel. On the procedure:
as §1, §2

In data set [13] the target is Flt-1 (Homo sapiens, UniProt P17948). Description: ELISA kinase assay, Flt-1. It counts as biochemical. The following applies: kinase selectivity panel. On the procedure:
as §1, §2

Data set [14] has as its target Bcr-Abl (Homo sapiens, UniProt P00519). Description: ELISA kinase assay, Bcr-Abl. The data set is classed as biochemical. The following applies: kinase selectivity panel. On the procedure:
as §1, §2

Data set [15] addresses ErbB2 (Homo sapiens, UniProt P04626). Put plainly: ELISA kinase assay, ErbB2. The data set is classed as biochemical. Conditions: kinase selectivity panel. The method, then: as §1, §2

For orientation: IC50 means the concentration at which inhibition is half-maximal. In general, melting point refers to the temperature of the solid-liquid transition.

Chain of FGFR1 (P11362 22-822): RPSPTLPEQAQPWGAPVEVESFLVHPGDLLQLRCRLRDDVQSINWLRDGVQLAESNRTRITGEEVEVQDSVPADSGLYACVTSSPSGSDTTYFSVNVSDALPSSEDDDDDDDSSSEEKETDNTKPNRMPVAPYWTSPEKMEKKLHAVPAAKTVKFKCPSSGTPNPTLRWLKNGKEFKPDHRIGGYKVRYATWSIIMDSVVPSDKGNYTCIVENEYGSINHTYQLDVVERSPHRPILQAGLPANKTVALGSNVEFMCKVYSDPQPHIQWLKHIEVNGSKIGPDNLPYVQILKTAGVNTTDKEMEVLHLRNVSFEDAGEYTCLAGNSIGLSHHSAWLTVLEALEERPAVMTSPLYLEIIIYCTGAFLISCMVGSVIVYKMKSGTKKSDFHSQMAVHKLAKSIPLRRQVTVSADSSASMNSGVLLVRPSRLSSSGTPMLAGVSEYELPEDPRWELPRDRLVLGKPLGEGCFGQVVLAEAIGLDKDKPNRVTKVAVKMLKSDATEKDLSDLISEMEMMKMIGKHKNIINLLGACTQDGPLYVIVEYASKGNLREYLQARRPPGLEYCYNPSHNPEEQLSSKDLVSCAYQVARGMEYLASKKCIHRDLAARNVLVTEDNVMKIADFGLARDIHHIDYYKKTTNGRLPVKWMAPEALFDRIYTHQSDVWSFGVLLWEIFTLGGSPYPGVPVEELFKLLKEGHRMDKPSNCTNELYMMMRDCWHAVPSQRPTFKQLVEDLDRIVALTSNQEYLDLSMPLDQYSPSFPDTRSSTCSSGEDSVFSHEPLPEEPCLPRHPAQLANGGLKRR
Chain of c-Met (P08581 25-1390): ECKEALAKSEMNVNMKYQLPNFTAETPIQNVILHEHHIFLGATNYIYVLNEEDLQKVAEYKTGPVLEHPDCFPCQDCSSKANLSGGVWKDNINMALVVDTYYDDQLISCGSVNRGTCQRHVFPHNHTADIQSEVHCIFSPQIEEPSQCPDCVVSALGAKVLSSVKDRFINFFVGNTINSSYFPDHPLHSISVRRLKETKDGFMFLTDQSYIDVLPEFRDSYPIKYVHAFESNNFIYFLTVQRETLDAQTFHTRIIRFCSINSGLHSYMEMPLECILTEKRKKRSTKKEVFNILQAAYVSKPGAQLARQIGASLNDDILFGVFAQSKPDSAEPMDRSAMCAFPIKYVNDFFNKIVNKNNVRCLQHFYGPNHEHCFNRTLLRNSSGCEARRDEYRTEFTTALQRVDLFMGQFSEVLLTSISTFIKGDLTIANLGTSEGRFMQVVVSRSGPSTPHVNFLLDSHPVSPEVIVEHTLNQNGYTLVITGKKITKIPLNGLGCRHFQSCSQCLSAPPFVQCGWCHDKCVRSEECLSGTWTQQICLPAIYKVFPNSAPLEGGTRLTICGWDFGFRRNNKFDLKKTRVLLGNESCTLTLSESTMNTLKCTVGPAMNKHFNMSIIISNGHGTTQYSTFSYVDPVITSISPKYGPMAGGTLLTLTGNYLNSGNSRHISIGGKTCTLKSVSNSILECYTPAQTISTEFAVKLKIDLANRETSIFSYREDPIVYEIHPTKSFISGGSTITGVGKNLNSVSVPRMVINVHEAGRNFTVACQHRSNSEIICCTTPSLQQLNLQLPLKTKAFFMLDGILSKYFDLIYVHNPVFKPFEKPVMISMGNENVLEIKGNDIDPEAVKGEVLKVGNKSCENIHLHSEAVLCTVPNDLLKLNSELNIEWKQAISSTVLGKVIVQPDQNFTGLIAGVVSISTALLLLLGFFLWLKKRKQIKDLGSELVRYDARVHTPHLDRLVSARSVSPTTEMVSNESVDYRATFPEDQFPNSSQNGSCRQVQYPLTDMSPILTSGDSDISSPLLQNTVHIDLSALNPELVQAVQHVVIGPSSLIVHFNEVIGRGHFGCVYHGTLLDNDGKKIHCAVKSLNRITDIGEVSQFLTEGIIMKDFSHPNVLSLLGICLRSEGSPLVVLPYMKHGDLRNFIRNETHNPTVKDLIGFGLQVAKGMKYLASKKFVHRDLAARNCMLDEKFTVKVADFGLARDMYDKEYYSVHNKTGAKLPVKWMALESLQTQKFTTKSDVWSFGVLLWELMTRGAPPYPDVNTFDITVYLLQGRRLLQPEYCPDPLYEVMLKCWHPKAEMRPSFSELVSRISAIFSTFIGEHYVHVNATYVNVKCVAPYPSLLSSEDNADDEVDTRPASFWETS
Chain of EGFR (P00533 25-1210, species assumed): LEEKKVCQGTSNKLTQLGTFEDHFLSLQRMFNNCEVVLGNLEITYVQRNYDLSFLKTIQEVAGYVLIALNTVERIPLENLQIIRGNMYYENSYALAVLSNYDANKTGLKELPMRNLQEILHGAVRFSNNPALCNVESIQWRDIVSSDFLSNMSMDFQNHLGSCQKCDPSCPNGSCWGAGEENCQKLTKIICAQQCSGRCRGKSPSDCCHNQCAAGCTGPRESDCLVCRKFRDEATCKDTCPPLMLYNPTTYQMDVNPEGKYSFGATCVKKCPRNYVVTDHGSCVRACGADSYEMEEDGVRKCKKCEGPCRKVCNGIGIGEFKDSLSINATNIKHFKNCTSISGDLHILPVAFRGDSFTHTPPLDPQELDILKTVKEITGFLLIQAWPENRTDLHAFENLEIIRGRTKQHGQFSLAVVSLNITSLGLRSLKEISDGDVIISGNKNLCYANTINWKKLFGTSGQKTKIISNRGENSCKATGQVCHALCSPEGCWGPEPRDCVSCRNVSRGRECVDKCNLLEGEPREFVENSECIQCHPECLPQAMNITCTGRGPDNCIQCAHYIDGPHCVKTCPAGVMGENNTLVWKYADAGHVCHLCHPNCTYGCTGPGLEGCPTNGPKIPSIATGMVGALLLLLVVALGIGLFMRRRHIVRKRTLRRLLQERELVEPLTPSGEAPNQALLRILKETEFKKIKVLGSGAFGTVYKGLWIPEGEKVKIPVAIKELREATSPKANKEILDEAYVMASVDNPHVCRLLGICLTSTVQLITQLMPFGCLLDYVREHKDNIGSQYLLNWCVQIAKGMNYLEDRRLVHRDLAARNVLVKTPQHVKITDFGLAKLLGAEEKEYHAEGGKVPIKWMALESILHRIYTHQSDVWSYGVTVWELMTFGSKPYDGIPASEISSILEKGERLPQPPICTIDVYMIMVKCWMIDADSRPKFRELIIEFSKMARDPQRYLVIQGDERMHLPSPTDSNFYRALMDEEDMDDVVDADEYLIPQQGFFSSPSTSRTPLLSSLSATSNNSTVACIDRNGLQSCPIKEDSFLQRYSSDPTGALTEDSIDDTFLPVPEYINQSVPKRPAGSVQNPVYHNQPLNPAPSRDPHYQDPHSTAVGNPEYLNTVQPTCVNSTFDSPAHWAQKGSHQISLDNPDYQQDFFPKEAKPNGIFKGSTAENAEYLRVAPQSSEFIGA
Chain of FGFR4 (P22455 22-802): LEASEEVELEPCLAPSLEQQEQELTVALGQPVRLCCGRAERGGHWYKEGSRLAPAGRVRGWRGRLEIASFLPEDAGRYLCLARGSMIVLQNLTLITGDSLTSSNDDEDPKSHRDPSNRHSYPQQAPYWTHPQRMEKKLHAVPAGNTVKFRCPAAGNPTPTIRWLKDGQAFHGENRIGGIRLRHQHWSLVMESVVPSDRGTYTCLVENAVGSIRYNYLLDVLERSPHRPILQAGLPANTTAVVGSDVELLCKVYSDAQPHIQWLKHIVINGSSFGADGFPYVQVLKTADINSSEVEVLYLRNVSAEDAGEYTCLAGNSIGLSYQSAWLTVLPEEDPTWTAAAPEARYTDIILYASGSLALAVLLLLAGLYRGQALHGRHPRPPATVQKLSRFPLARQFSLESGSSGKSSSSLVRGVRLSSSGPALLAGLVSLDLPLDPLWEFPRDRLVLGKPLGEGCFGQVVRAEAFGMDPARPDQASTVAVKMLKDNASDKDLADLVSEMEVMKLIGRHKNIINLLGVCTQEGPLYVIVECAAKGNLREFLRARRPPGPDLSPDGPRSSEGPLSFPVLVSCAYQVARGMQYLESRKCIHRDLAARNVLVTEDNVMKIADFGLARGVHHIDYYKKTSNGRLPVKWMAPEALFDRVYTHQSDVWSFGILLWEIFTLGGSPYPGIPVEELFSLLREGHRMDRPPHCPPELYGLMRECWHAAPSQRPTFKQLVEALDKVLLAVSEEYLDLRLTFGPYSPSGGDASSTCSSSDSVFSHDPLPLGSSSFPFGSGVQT
Chain of FGFR3 (P22607 23-806): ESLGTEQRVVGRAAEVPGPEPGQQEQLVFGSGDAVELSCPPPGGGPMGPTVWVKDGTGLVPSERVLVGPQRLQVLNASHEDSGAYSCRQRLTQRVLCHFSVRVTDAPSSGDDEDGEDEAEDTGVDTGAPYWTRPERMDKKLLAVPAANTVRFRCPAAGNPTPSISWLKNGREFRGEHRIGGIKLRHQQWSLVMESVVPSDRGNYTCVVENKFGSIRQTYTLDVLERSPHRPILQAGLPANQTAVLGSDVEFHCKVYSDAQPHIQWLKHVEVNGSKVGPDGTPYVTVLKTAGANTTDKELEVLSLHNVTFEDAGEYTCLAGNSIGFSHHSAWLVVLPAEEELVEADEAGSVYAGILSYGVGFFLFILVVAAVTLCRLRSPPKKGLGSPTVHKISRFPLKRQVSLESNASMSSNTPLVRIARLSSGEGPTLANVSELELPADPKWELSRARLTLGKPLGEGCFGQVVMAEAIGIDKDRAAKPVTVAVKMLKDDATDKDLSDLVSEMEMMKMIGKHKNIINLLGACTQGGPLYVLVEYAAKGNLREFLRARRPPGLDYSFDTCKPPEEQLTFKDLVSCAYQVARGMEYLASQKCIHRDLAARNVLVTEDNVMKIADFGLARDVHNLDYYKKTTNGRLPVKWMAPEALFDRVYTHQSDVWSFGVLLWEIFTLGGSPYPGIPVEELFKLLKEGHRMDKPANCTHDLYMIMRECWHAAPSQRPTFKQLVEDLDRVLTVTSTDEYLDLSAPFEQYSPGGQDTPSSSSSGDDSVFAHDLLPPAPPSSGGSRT

`COc1cc(F)cc(-c2ccc3c(NC(=O)c4ccc(N5CCC(N(C)C)CC5)cc4)n[nH]c3c2)c1` [9u, 4–(4-(dimethylamino)piperidin-1-yl)-N-(6–(3-fluoro-5-methoxyphenyl)-1H-indazol-3-yl)benzamide] yielded a melting point of 223.8 to 227.4 °C. The same compound returned a concentration for half-maximal inhibition (IC50) in [1] above 1000 nM. The 50% inhibitory concentration (IC50) in data set [2] was 5.2 nM. The compound further gave an IC50 in data set [3] above 1000 nM. Further, the half-maximal inhibitory concentration (IC50) in data set [4] was above 100 nM. Besides, the IC50 in data set [5] stood at 3.3 nM. In data set [5] (compared with 9o), the “enhancement of FGFR1 inhibitory activity” value is on record as 1.5 fold. This compound also returned an IC50 in [6] (Table 3) of 468 nM. Also, in [7], the IC50 came out at 12.2 nM. In addition, the IC50 in data set [8] was above 1000 nM. Besides, the IC50 in data set [9] is above 1000 nM. In data set [10], this compound displayed an IC50 above 100 nM. In [11], this compound yielded an IC50 above 1000 nM. Moreover, in data set [12], the concentration for half-maximal inhibition (IC50) was above 1000 nM. This compound came in with a half-maximal inhibitory concentration (IC50) in data set [13] above 100 nM. For the same compound, the IC50 in data set [14] was above 1000 nM. Also, the 50% inhibitory concentration (IC50) in data set [15] was above 1000 nM.

On to `COc1cc(F)cc(-c2ccc3c(NC(=O)c4ccc(N5CCCN(C)CC5)cc4)n[nH]c3c2)c1` [9w, N-(6–(3-fluoro-5-methoxyphenyl)-1H-indazol-3-yl)-4–(4-methyl-1,4-diazepan-1-yl)benzamide], for which the melting point was in the range of 230.4 to 234.6 °C. This compound also returned a 50% inhibitory concentration (IC50) in [5] of 3.3 nM. Moreover, the IC50 in data set [6] (Table 3) is 557 nM.

Regarding `COc1cc(F)cc(-c2ccc3c(NC(=O)c4ccc(CN5CCN(C)CC5)cc4)n[nH]c3c2)c1` [9x, N-(6–(3-fluoro-5-methoxyphenyl)-1H-indazol-3-yl)-4-((4-methylpiperazin-1-yl)methyl)benzamide], the melting point lay within 240.3 to 242.5 °C. For the same compound, in data set [5], the IC50 is above 1000 nM. For the same compound, the IC50 in [6] (Table 3) was above 5000 nM.

`COc1cc(F)cc(-c2ccc3c(NC(=O)c4ccc(N5CCN(C)CC5)cc4)n[nH]c3c2)c1` [9y, N-(6–(3-fluoro-5-methoxyphenyl)-1H-indazol-3-yl)-4–(4-methylpiperazin-1-yl)benzamide] had a melting point of 237.4 to 241.6 °C. The compound also showed an IC50 in data set [5] of 10.2 nM. This compound had an IC50 in data set [6] (Table 3) of 639 nM.

`COc1cc(F)cc(-c2ccc3c(NC(=O)c4cnc(N5CCN(C)CC5)cn4)n[nH]c3c2)c1` [9z, N-(6–(3-fluoro-5-methoxyphenyl)-1H-indazol-3-yl)-5–(4-methylpiperazin-1-yl)pyrazine-2-carboxamide]: the melting point is 237.7 to 240.3 °C. In data set [5], this compound gave a 50% inhibitory concentration (IC50) of 4.6 nM. Moreover, the IC50 in data set [6] (Table 3) stood at 738 nM.

Compound `COc1cccc(-c2ccc3nc(NC(=O)c4ccc(N5CCN(C)CC5)cc4)sc3c2)c1` [12a, N-(6–(3-methoxyphenyl)benzo[d]thiazol-2-yl)-4–(4-methylpiperazin-1-yl) benzamide] registered a melting point of 230.5 to 233.2 °C. In addition, the concentration for half-maximal inhibition (IC50) in data set [5] was above 1000 nM. In addition, the IC50 in [6] (Table 1) was above 5000 nM.

`COc1cc(OC)cc(-c2ccc3nc(NC(=O)c4ccc(N5CCN(C)CC5)cc4)sc3c2)c1` [12b, N-(6–(3,5-dimethoxyphenyl)benzo[d]thiazol-2-yl)-4–(4-methylpiperazin-1-yl) benzamide] showed a melting point of 234.6 to 238.2 °C. This compound yielded an IC50 in [5] above 1000 nM. In [6] (Table 1), the concentration for half-maximal inhibition (IC50) is above 5000 nM.

Take `COc1cc(-c2ccc3nc(NC(=O)c4ccc(N5CCN(C)CC5)cc4)sc3c2)cc(OC)c1OC` [12c, 4–(4-methylpiperazin-1-yl)-N-(6–(3,4,5-trimethoxyphenyl)benzo[d]thiazol-2-yl)benzamide]: the melting point lay within 236.4 to 238.3 °C. In [5], the IC50 is above 1000 nM. Further, the half-maximal inhibitory concentration (IC50) in data set [6] (Table 1) is above 5000 nM.

As to `COc1cccc(-c2ccc3nc(NC(=O)c4ccc(N5CCN(C)CC5)cc4)sc3c2)c1F` [12d, N-(6–(2-fluoro-3-methoxyphenyl)benzo[d]thiazol-2-yl)-4–(4-methylpiperazin-1-yl)benzamide], the melting point is 232.5 to 235.2 °C. This compound came in with a half-inhibitory concentration (IC50) in data set [5] above 1000 nM. Also, the IC50 in data set [6] (Table 1) was above 5000 nM.

Take `CN1CCN(c2ccc(C(=O)Nc3n[nH]c(CCc4ccccc4)n3)cc2)CC1` [18a, 4–(4-methylpiperazin-1-yl)-N-(5-phenethyl-1H-1,2,4-triazol-3-yl)benzamide]: the melting point lay in the range of 218.1 to 222.5 °C. Moreover, the concentration for half-maximal inhibition (IC50) in data set [5] is above 1000 nM. Besides, the half-inhibitory concentration (IC50) in [6] (Table 1) is above 5000 nM.

Compound `COc1cc(CCc2nc(NC(=O)c3ccc(N4CCN(C)CC4)cc3)n[nH]2)cc(OC)c1` [18c, N-(5–(3,5-dimethoxyphenethyl)-1H-1,2,4-triazol-3-yl)-4–(4-methylpiperazin-1-yl)benzamide] came in with a melting point of 220.9 to 223.3 °C. The compound also yielded an IC50 in data set [5] above 1000 nM. Moreover, the IC50 in data set [6] (Table 1) was above 5000 nM.
